Experiments:
Experiment in all cases: relative viability (nuclei count vs DMSO), 5 days (fraction); higher = more cells survive
A-427 = test system: A-427
Procedure, shortened: (§1)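 A single step with final 0.05% Triton X-100, 1% formaldehyde and 1 ug/ml Hoechst fixed the cells and stained nuclei 5 days after treatment. Lung cancer cell lines in 1536-well plates had been treated by pin tool the day after seeding with one drug alone or a fixed anchor-drug dose plus five library-drug doses (not always all listed) in √10 steps, and nuclei were counted on 4× images. Relative viability is the ratio of nuclei in treated wells to nuclei in vehicle wells, taken as the median of duplicate plates.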

EPLC-272H = test system: EPLC-272H
Procedure, shortened: as §1

HCC-15 = test system: HCC-15
Procedure, shortened: as §1

LC-2-ad = test system: LC-2-ad
Procedure, shortened: as §1

LK-2 = test system: LK-2
Procedure, shortened: as §1

NCI-H1734 = test system: NCI-H1734
Procedure, shortened: as §1

NCI-H1793 = test system: NCI-H1793
Procedure, shortened: as §1

NCI-H1915 = test system: NCI-H1915
Procedure, shortened: as §1

NCI-H1944 = test system: NCI-H1944
Procedure, shortened: as §1

NCI-H2009 = test system: NCI-H2009
Procedure, shortened: as §1

NCI-H2023 = test system: NCI-H2023
Procedure, shortened: as §1

NCI-H2342 = test system: NCI-H2342
Procedure, shortened: as §1

NCI-H2347 = test system: NCI-H2347
Procedure, shortened: as §1

NCI-H322M = test system: NCI-H322M
Procedure, shortened: as §1

NCI-H358 = test system: NCI-H358
Procedure, shortened: as §1

NCI-H441 = test system: NCI-H441
Procedure, shortened: as §1

NCI-H522 = test system: NCI-H522
Procedure, shortened: as §1

NCI-H647 = test system: NCI-H647
Procedure, shortened: as §1

NCI-H838 = test system: NCI-H838
Procedure, shortened: as §1

RERF-LC-KJ = test system: RERF-LC-KJ
Procedure, shortened: as §1

SW 1573 = test system: SW 1573
Procedure, shortened: as §1

UMC-11 = test system: UMC-11
Procedure, shortened: as §1

Compound Cc1csc(=NC2CCCCC2)n1/N=C/c1ccc(O)c(O)c1O [MIM1] + CC(=O)Nc1cccc(-n2c(=O)n(C3CC3)c(=O)c3c(Nc4ccc(I)cc4F)n(C)c(=O)c(C)c32)c1 [Trametinib] (partner 0.02 µM) has a relative viability (A-427; first compound 0.2 µM) of 0.758, a relative viability (A-427; first compound 0.6325 µM) of 0.737 and a relative viability (A-427; first compound 2 µM) of 0.77. The relative viability (A-427; first compound 6.325 µM) was 0.672, the relative viability (A-427; first compound 20 µM) was 0.37 and the relative viability (EPLC-272H; first compound 0.2 µM) was 0.322. For the same compound, the relative viability (EPLC-272H; first compound 0.6325 µM) was 0.279, the relative viability (EPLC-272H; first compound 2 µM) was 0.273 and the relative viability (EPLC-272H; first compound 6.325 µM) was 0.24. It also gave a relative viability (EPLC-272H; first compound 20 µM) of 0.16, a relative viability (HCC-15; first compound 0.2 µM) of 0.363 and a relative viability (HCC-15; first compound 2 µM) of 0.372. For the same compound, the relative viability (HCC-15; first compound 6.325 µM) was 0.377, the relative viability (HCC-15; first compound 20 µM) was 0.133 and the relative viability (LC-2-ad; first compound 0.2 µM) was 0.904. It also gave a relative viability (LC-2-ad; first compound 0.6325 µM) of 0.941, a relative viability (LC-2-ad; first compound 2 µM) of 0.913 and a relative viability (LC-2-ad; first compound 6.325 µM) of 0.529. The relative viability (LC-2-ad; first compound 20 µM) was 0.739, the relative viability (LK-2; first compound 0.2 µM) was 1.02 and the relative viability (LK-2; first compound 0.6325 µM) was 0.693. For the same compound, the relative viability (LK-2; first compound 2 µM) was 0.625, the relative viability (LK-2; first compound 6.325 µM) was 1.02 and the relative viability (LK-2; first compound 20 µM) was 0.236. It also gave a relative viability (NCI-H1734; first compound 0.2 µM) of 0.786, a relative viability (NCI-H1734; first compound 0.6325 µM) of 0.676 and a relative viability (NCI-H1734; first compound 2 µM) of 0.607. The relative viability (NCI-H1734; first compound 6.325 µM) was 0.583, the relative viability (NCI-H1734; first compound 20 µM) was 0.183 and the relative viability (NCI-H1793; first compound 0.2 µM) was 0.397. It also gave a relative viability (NCI-H1793; first compound 2 µM) of 0.409, a relative viability (NCI-H1793; first compound 6.325 µM) of 0.411 and a relative viability (NCI-H1793; first compound 20 µM) of 0.408. It also gave a relative viability (NCI-H1915; first compound 0.2 µM) of 0.31, a relative viability (NCI-H1915; first compound 0.6325 µM) of 0.27 and a relative viability (NCI-H1915; first compound 2 µM) of 0.279. For the same compound, the relative viability (NCI-H1915; first compound 6.325 µM) was 0.314, the relative viability (NCI-H1915; first compound 20 µM) was 0.357 and the relative viability (NCI-H1944; first compound 0.2 µM) was 0.386. The relative viability (NCI-H1944; first compound 0.6325 µM) was 0.462, the relative viability (NCI-H1944; first compound 2 µM) was 0.307 and the relative viability (NCI-H1944; first compound 6.325 µM) was 0.364. The relative viability (NCI-H1944; first compound 20 µM) was 0.265, the relative viability (NCI-H2009; first compound 0.2 µM) was 0.257 and the relative viability (NCI-H2009; first compound 0.6325 µM) was 0.261. The relative viability (NCI-H2009; first compound 2 µM) was 0.27, the relative viability (NCI-H2009; first compound 6.325 µM) was 0.208 and the relative viability (NCI-H2009; first compound 20 µM) was 0.329. The relative viability (NCI-H2023; first compound 0.2 µM) was 0.505, the relative viability (NCI-H2023; first compound 0.6325 µM) was 0.562 and the relative viability (NCI-H2023; first compound 2 µM) was 0.52. For the same compound, the relative viability (NCI-H2023; first compound 6.325 µM) was 0.247, the relative viability (NCI-H2023; first compound 20 µM) was 0.0881 and the relative viability (NCI-H2342; first compound 0.2 µM) was 0.842. It also gave a relative viability (NCI-H2342; first compound 0.6325 µM) of 0.903, a relative viability (NCI-H2342; first compound 2 µM) of 0.787 and a relative viability (NCI-H2342; first compound 6.325 µM) of 0.716. It also gave a relative viability (NCI-H2342; first compound 20 µM) of 1.1, a relative viability (NCI-H2347; first compound 0.2 µM) of 0.309 and a relative viability (NCI-H2347; first compound 0.6325 µM) of 0.358. The relative viability (NCI-H2347; first compound 2 µM) was 0.283, the relative viability (NCI-H2347; first compound 6.325 µM) was 0.315 and the relative viability (NCI-H2347; first compound 20 µM) was 0.27. For the same compound, the relative viability (NCI-H322M; first compound 0.2 µM) was 0.508, the relative viability (NCI-H322M; first compound 0.6325 µM) was 0.596 and the relative viability (NCI-H322M; first compound 2 µM) was 0.456. It also gave a relative viability (NCI-H322M; first compound 6.325 µM) of 0.526, a relative viability (NCI-H322M; first compound 20 µM) of 0.577 and a relative viability (NCI-H358; first compound 0.2 µM) of 0.149. The relative viability (NCI-H358; first compound 0.6325 µM) was 0.15, the relative viability (NCI-H358; first compound 2 µM) was 0.119 and the relative viability (NCI-H358; first compound 6.325 µM) was 0.116. For the same compound, the relative viability (NCI-H358; first compound 20 µM) was 0.133, the relative viability (NCI-H441; first compound 0.2 µM) was 0.558 and the relative viability (NCI-H441; first compound 0.6325 µM) was 0.409. For the same compound, the relative viability (NCI-H441; first compound 2 µM) was 0.484, the relative viability (NCI-H441; first compound 6.325 µM) was 0.302 and the relative viability (NCI-H441; first compound 20 µM) was 0.211. For the same compound, the relative viability (NCI-H522; first compound 0.2 µM) was 0.727, the relative viability (NCI-H522; first compound 0.6325 µM) was 0.654 and the relative viability (NCI-H522; first compound 2 µM) was 0.834. For the same compound, the relative viability (NCI-H522; first compound 6.325 µM) was 0.897, the relative viability (NCI-H522; first compound 20 µM) was 0.675 and the relative viability (NCI-H647; first compound 0.2 µM) was 0.435. For the same compound, the relative viability (NCI-H647; first compound 0.6325 µM) was 0.567, the relative viability (NCI-H647; first compound 2 µM) was 0.415 and the relative viability (NCI-H647; first compound 6.325 µM) was 0.413. The relative viability (NCI-H647; first compound 20 µM) was 0.18, the relative viability (NCI-H838; first compound 0.2 µM) was 0.463 and the relative viability (NCI-H838; first compound 0.6325 µM) was 0.572. It also gave a relative viability (NCI-H838; first compound 2 µM) of 0.544, a relative viability (NCI-H838; first compound 6.325 µM) of 0.353 and a relative viability (NCI-H838; first compound 20 µM) of 0.178. The relative viability (RERF-LC-KJ; first compound 0.2 µM) was 0.832, the relative viability (RERF-LC-KJ; first compound 0.6325 µM) was 0.801 and the relative viability (RERF-LC-KJ; first compound 2 µM) was 0.666. For the same compound, the relative viability (RERF-LC-KJ; first compound 6.325 µM) was 0.56, the relative viability (RERF-LC-KJ; first compound 20 µM) was 0.3 and the relative viability (SW 1573; first compound 0.2 µM) was 0.647. It also gave a relative viability (SW 1573; first compound 0.6325 µM) of 0.574, a relative viability (SW 1573; first compound 2 µM) of 0.553 and a relative viability (SW 1573; first compound 6.325 µM) of 0.361. The relative viability (SW 1573; first compound 20 µM) was 0.13, the relative viability (UMC-11; first compound 0.2 µM) was 0.724 and the relative viability (UMC-11; first compound 0.6325 µM) was 0.267. The relative viability (UMC-11; first compound 2 µM) was 0.751, the relative viability (UMC-11; first compound 6.325 µM) was 0.475 and the relative viability (UMC-11; first compound 20 µM) was 0.156.
